Assay results as given in patent publication EP0787493A1, “Tetrahydroisoquinoline derivatives” (priority 1996, dated 1997).
Where two headings read alike, the source gives them in different places.

Key:
NMDA receptors = assay: 3H-MK801 (Dizocilpine) binding in vitro; conditions: rat whole brain membranes, 5nM 3H-MK-801, glutamate, glycine and spermidine present
Experimental: 3H-MK801 (Dizocilpine) binding in vitro
The whole brain from 150-200g male rats, without cerebellum and without medulla oblongata was dissected on ice. The tissue was then homogenized with an Ultra-Turrax maximum speed during 30 seconds at 4°C in 50 volumes of cold Tris HCI 50mM, EDTA disodium 10mM, pH=7.4 buffer (wet weight/v). The homogenate was centrifuged at 48'000 x g (20'000 rpm, SS34, Sorvall RC5C) for 10 minutes. The pellet was rehomogenized with the same volume of buffer and the homogenate incubated at 37°C for 10 minutes. After centrifugation as above, the pellet was rehomogenized with the same volume of buffer and frozen at -80°C in 35 ml fractions for at least 16 hours and not more than 2 weeks.
For the binding experiment, the homogenate was centrifuged as above and the pellet was washed 3 times by homogenization in 25 volumes of cold Tris HCl 5mM, pH=7.4 buffer (Ultra-Turrax, maximum speed, 30 seconds) and centrifugation as above. The final pellet was rehomogenized in 25 volumes of buffer (original wet weight) and used as such in the assay. The final concentration of membrane in the assay was 20mg/ml (wet weight).
The incubation was performed in the presence of 1nM glutamate, glycine and spermidine. MK-801, (+)-[3-3H(N)], NEN (NET-972) 20Ci/mmol, was used at 5nM final concentration. Non specific binding was determined in presence of […] TCP. After 2 hours of incubation at room temperature, the suspension was filtered (Whatmann GF/B, soaked in 0.1% polyethylenimine for 2 hours) and washed 5 times with 3 ml of cold Tris HCl 5mM, pH=7.4 buffer. The air-dried filters were counted with 10ml of Ultima-gold (Packard) in a Tri-Carb 2500 TR scintillation counter after agitation.
The DPM were transformed in % of specific binding and these values were treated by a non linear regression calculation program (BINDING, H. Affolter, Switzerland) which provided the IC50 values for the low and high affinity binding sites (= concentrations producing half maximal inhibition at the respective sites). Each experiment was repeated at least three times and the final IC50 values were calculated as the mean +/-standard deviation of the individual experiments.
Reference: R.W. Ransom and N.L. Stec. Journal of Neurochemistry 51, 830-836, 1988.

NMDAR1C - NMDAR2B = target: T1, NMDAR1C - NMDAR2B (Rattus norvegicus, UniProt P35439+Q00960); assay: Electrophysiology on recombinant NMDA receptors expressed in oocytes; format: cell-based; conditions: Xenopus laevis oocytes, voltage clamp -80 mV; 15 µM Asp plus 0.2 µM Gly; read-out: Electrophysiology/IC50 (µM) oocytes NMDAR 1C & 2B
T1 construct: expressed in transfected cells; host or cells: Xenopus laevis oocytes injected with in vitro transcribed mRNA (1:1 mixture)
Text: (§1) Electrophysiology on recombinant NMDA receptors.
(§2) cDNA clones coding for the subunits NMDAR1C and NMDAR2A of the NMDA receptor (see Hollmann and Heinemann, 1994, Annu. Rev. Neurosci. 17: 31 for nomenclature of NMDA receptor subunits) were isolated from a rat brain λgt11 cDNA library as published elsewhere (Sigel et al., 1994, J. Biol. Chem. 269:8204). The clone for the subunit NMDAR2B of the rat brain NMDA receptor was obtained from S.Nakanishi (Kyoto, Japan). The cDNAs were transcribed, capped and poly(A^+)-tailed as described previously (Malherbe et al., 1990, Mol. Brain Res. 8: 199). Oocytes of South African frogs (Xenopus laevis) were used for expressing either a combination of the NMDAR1C and NMDAR2A subunits or the NMDAR1C and NMDAR2B subunits. Approximately 3 fmol of a 1:1 mixture of the respective mRNA species were injected into every oocyte. Four to five days later the ion current through the NMDA receptor channels was measured in voltage clamp experiments (see Methfessel et al., 1986, Pflügers Arch. 407: 577 for the methods of oocyte expression and voltage-clamping). The membrane potential was clamped to -80 mV and the receptors were activated by applying a modified Ringer's solution containing the agonists L-asparatate (Asp) and glycine (Gly). Different agonist concentrations were chosen for either subunit combination to account for the different agonist sensitivities of the two types of receptors (70 µM Asp plus 2.5 µM Gly for NMDAR1C - NMDAR2A and 15 µM Asp plus 0.2 µM Gly for NMDAR1C - NMDAR2B). The agonists were applied for 15 s intervals once every 2.5 min by rapid superfusion of the oocyte. After a series of initial control stimuli increasing concentrations of the antagonist to be tested were added to both, the basal Ringer's and the agonist containing solution. For the data analysis the amplitude (y) of the agonist-induced current was plotted versus the concentration (x) of the antagonist and the logistic function y =A/[1 +(x/IC50)^H ] [formula] was fitted to the data to estimate the 50 % inhibitory concentration (IC50). Three to six oocytes were tested for every antagonist and if possible, at least 3 concentrations embracing the IC50 were applied to every oocyte. […] In two other cases a concentration of 0.1 µM produced a slowly increasing block which exceeded 50% after 30 min. […] Figures for the IC50 in all other cases are arithmetic mean values of individual IC50s determined by the logistic curve fits.

NMDAR1C - NMDAR2A = target: T2, NMDAR1C - NMDAR2A (Rattus norvegicus, UniProt P35439+Q00959); assay: as above; format: cell-based; conditions: Xenopus laevis oocytes, voltage clamp -80 mV; 70 µM Asp plus 2.5 µM Gly; read-out: Electrophysiology/IC50 (µM) oocytes NMDAR 1C & 2A
T2 construct: expressed in transfected cells; host or cells: Xenopus laevis oocytes injected with in vitro transcribed mRNA (1:1 mixture)
Text: as §1, §2

[1] = high affinity binding site, read-out: 3H-MK 801 / IC50 (µM) high
[2] = low affinity binding site, read-out: 3H-MK 801 / IC50 (µM) low

T2 sequence (Q00959 23-1464, other chains not shown): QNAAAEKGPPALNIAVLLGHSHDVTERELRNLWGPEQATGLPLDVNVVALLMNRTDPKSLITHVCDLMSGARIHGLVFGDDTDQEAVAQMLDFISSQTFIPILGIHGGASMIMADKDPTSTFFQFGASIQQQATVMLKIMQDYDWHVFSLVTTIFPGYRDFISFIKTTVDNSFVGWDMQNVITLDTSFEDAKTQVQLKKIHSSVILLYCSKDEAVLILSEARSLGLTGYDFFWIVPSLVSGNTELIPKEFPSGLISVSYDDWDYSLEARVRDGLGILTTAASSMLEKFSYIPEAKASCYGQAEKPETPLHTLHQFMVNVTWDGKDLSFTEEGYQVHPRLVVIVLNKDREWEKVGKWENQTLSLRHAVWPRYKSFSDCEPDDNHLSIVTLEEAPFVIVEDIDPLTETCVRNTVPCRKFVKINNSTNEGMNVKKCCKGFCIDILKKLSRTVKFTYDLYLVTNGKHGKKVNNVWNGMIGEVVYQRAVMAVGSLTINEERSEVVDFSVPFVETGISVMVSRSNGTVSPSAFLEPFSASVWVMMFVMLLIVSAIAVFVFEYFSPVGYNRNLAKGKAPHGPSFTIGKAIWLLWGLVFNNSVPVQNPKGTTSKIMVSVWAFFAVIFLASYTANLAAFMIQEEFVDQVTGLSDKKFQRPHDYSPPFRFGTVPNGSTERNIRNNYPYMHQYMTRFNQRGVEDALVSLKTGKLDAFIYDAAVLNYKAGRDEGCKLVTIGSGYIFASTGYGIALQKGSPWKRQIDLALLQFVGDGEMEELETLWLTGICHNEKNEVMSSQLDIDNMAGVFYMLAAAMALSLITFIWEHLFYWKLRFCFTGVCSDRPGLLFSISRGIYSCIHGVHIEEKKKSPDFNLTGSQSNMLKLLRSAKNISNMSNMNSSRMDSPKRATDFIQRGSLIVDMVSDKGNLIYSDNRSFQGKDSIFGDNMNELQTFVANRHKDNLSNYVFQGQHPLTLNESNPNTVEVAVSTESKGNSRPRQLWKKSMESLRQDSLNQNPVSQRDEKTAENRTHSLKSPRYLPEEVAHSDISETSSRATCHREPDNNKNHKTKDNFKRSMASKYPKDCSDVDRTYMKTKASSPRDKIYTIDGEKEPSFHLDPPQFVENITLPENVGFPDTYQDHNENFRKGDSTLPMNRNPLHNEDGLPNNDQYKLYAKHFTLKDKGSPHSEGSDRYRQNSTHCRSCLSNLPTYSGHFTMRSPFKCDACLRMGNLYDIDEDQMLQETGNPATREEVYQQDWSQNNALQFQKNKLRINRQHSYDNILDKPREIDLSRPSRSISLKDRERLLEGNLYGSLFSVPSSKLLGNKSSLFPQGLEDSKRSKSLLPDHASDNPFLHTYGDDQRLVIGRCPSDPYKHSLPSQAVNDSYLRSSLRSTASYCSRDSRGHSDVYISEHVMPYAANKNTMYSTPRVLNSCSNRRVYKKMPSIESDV
T1 sequence (Q00960 27-1482, other chains not shown): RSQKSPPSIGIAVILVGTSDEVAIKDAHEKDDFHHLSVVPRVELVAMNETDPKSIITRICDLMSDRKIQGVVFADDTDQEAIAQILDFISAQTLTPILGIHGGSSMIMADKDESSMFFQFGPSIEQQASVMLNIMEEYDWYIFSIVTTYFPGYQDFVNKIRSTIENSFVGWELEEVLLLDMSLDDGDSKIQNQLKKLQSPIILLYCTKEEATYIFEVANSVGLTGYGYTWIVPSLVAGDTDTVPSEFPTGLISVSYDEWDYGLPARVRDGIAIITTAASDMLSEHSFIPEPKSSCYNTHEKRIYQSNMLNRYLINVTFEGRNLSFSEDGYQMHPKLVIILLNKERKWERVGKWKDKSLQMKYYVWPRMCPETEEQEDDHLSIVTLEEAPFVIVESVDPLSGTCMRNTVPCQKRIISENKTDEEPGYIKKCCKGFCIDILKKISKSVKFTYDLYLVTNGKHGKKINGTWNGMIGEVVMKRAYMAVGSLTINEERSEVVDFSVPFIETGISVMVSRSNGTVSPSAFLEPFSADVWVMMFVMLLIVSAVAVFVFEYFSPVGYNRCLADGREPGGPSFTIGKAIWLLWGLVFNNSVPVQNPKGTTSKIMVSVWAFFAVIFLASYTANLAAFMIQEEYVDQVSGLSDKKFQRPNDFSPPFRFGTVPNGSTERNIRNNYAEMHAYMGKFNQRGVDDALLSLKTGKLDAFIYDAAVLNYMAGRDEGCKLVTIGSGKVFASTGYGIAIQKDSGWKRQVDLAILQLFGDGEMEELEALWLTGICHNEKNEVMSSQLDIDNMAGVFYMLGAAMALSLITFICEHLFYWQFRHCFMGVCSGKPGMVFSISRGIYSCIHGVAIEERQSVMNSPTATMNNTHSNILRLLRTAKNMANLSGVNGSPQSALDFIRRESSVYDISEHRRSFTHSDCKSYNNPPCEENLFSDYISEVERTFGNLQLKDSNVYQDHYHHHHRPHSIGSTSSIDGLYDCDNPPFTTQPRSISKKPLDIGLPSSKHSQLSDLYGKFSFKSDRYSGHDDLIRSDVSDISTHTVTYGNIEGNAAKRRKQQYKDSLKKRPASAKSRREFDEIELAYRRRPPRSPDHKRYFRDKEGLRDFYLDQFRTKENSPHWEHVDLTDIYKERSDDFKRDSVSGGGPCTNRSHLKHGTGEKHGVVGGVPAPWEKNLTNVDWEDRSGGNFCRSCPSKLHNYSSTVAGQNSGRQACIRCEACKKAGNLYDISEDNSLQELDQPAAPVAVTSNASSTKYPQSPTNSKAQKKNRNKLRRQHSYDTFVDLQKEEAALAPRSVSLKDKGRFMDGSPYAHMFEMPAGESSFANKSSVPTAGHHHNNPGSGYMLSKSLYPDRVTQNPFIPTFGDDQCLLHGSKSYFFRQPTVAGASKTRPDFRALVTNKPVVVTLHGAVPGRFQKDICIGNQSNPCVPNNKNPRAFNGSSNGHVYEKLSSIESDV

SMILES	IC50 (NMDA receptors; [1])	IC50 (NMDA receptors; [2])	IC50 (NMDAR1C - NMDAR2B)	IC50 (NMDAR1C - NMDAR2A)
COc1cc2c(cc1OC)C1CCCCC1NC2CCc1ccc(Cl)cc1 (stereo not shown) [H, 6-[2-(4-Chloro-phenyl)-ethyl]-8,9,dimethoxy-1,2,3,4,4a,5,6,10b-octahydrophenanthridine]	0.5 µM	589 µM		
COc1cc2c(cc1OC)C(CCc1ccc(Br)cc1)N(C)CC2 (stereo not shown) [L]	1.37 µM	198 µM		
COc1cc2c(cc1OC)C(CCc1ccc([N+](=O)[O-])cc1)N(C)CC2 (stereo not shown) [O]	1.6 µM	101 µM		
Cc1cc2c(cc1C)C(CCc1ccc(Cl)cc1)N(C)C(C)C2 (stereo not shown) [X]	3.87 µM	2230 µM		
COc1cc2c(cc1OC)C(CC(O)c1ccc(Cl)cc1)N(C)CC2 (single isomer, unassigned) [C, 1-(4-Chloro-phenyl)-2-(6,7-dimethoxy-2-methyl-1,2,3,4-tetrahydroisoquinolin-1-yl)-ethanol]	0.12 µM	191 µM	0.043 µM	> 20 µM
COc1cc2c(cc1OC)C(CC(O)c1cc(Cl)c(Cl)cc1Cl)N(C)CC2 (stereo not shown) [K]	0.91 µM	613 µM		
COc1cc2c(cc1OC)C(CC(O)c1ccc([N+](=O)[O-])cc1)N(C)CC2 (stereo not shown) [G, 2-(6,7-Dimethoxy-2-methyl-1,2,3,4-tetrahydroisoquinolin-1-yl)-1-(4-nitrophenyl)-ethanol]	0.46 µM	87 µM		
COc1ccc(C(O)CC2c3cc(OC)c(OC)cc3CCN2C)cc1 (stereo not shown) [I]	0.59 µM	146 µM		
CCC(=O)OC(CC1c2cc(OC)c(OC)cc2CCN1C)c1ccc(Cl)cc1 (stereo not shown) [S]	2.18 µM	123 µM		
COc1cc2c(cc1OC)C(CC(O)c1ccc(C)cc1)N(C)CC2 (stereo not shown) [A, 2-(6,7-Dimethoxy-2-methyl-1,2,3,4-tetrahydroisoquinolin-1-yl)-1-p-tolyl-ethanol]	0.04 µM	223 µM	≤ 0.1 µM	> 100 µM
CN1CCc2cc(O)c(O)cc2C1CCc1ccc(Cl)c(Cl)c1 (stereo not shown) [T]	2.31 µM	56 µM		
COc1ccc(CCC2c3cc(OC)c(OC)cc3CCN2C)cc1 (stereo not shown) [M]	1.39 µM	95 µM		
COc1cc2c(cc1OC)C(CCc1ccc(C(C)C)cc1)N(C)CC2 (stereo not shown) [N]	1.59 µM	370 µM		
COc1cc2c(cc1OC)C(CCc1ccc(Cl)cc1)N(C)C1CCCCC21 (stereo not shown) [F, 6-[2-(4-Chloro-phenyl)-ethyl]-8,9-dimethoxy-5-methyl-1,2,3,4,4a,5,6,10b-octahydro-phenanthridine]	0.4 µM	315 µM	< 0.1 µM	> 30 µM
COc1cc2c(cc1OC)C(CCc1ccccc1)N(C)CC2 (stereo not shown) [R]	2.1 µM	147 µM		
COc1cc2c(cc1OC)C(CCc1ccc(Cl)c(Cl)c1)N(C)CC2 (stereo not shown) [AA]	4.62 µM	185 µM		
COc1cc2c(cc1OC)C(CCc1ccc(C)cc1)N(C)CC2 (stereo not shown) [E, 6,7-Dimethoxy-2-methyl-1-(2-p-tolyl-ethyl)-1,2,3,4-tetrahydroisoquinoline]	0.34 µM	129 µM		
COc1cc2c(cc1OC)C(CC(O)c1ccc(Cl)cc1)N(C)CC2 (single isomer, unassigned) [V]	2.9 µM	110 µM		
COc1cc2c(cc1OC)C(CC(OC(C)=O)c1ccc(Cl)cc1)N(C)CC2 (stereo not shown) [Q]	1.76 µM	161 µM	1.2 µM	21 µM
CN1CCc2cc(O)c(O)cc2C1CCc1ccc(Cl)cc1 (stereo not shown) [D, 1-[2-(4-Chloro-phenyl)-ethyl] -2-methyl-1,2,3,4-tetrahydro-isoquinoline-6,7-diol]	0.29 µM	116 µM	0.28 µM	19 µM
COc1cc2c(cc1OC)C(CCc1ccc([N+](=O)[O-])cc1)N(C)CC2 (stereo not shown) [U]	2.71 µM	87 µM		
CN1CCc2cc3c(cc2C1CCc1ccc(Cl)cc1)OCO3 (stereo not shown) [P]	1.7 µM	95 µM		
COc1ccc2c(c1OC)CCN(C)C2CCc1ccc(Cl)cc1 (stereo not shown) [W]	3.6 µM	129 µM		
COc1cc2c(cc1O)C(CCc1ccc(Cl)cc1)N(C)CC2 (stereo not shown) [B, 1-[2-(4-Chloro-phenyl)-ethyl]-6-methoxy-2-methyl-1,2,3,4-tetrahydroisoquinolin-7-ol]	0.09 µM	54 µM		
